Measurements taken from PubChem BioAssay AID1963845 (Molecular Pharmacology Branch, DTP, NCI, 2024).
Several values for one entry are separate records, joined by “and”; a condition that tells them apart may be missing. Identical values can stand only once.

Test system: 429239-143-T-J1-PDC complex spheroid viability
Assay: Anticancer human tumor 429239-143-T-J1-PDC patient-derived small cell lung carcinoma cell line growth inhibition [POLQ]
Details: for viability, T/C: stronger effect = lower value; active = viability on the fitted dose curve at most 10% of control; inactive = the rest
Protocol: Multicellular complex tumor spheroid response to Polymerase (POL) inhibitors (novobiocin, ART-558, RP6685) in combination with a variety of drugs and investigational agents in selected tumor cell lines
The POL inhibitors (novobiocin, ART-558, and RP6685) were evaluated both individually and in combination with standard of care and investigational anticancer small molecules within a complex spheroid model of solid tumors. . Complex spheroids include a stromal component modeled by human endothelial cells (HUVEC) and fibroblasts modeled by human mesenchymal stem cells (MSCs). The concentration ranges selected for each drug and investigational agent were based upon clinically achievable concentrations if the clinical Cmax of the agent was known.
Compounds. The drugs and investigational agents: novobiocin (NSC847541), ART-558 (NSC835418), RP-6685 (NSC848927), peposertib (NSC802822), ceralasertib (NSC780249), elimusertib (NSC800525), camonsertib (NSC841442), AZD-1390 (NSC803789), olaparib (NSC753686), talazoparib (NSC767125), rucaparib (NSC756644), sotorasib (NSC818433), MRTX-1133 (NSC836407), SN-38 (NSC673596), topotecan (NSC609699), epotoside (NSC141540), doxorubicin (NSC123127), gemcitabine (NSC613327), 5-fluorouracil (NSC19893), paclitaxel (NSC125973), vemurafenib (NSC761431), MSA-2 (NSC828583), SN-011 (NSC837082), adavosertib (NSC754352), prexasertib (NSC758257), carboplatin (NSC241240) and oxaliplatin (NSC266046), were obtained from the National Cancer Institute (NCI) Developmental Therapeutics Program Chemical Repository (21). The FDA-approved anticancer drug set is available from the Developmental Therapeutics Program at https://dtp.cancer.gov/organization/dscb/obtaining/. […] The stock solutions were prepared in dimethyl sulfoxide (DMSO, Sigma-Aldrich, St. Louis, MO, cat. D2650), except for the platinum compounds which were prepared in saline (Quality Biological, Gaithersburg, MD, cat. 114-055-101), at 800-fold the tested concentration and stored at -70 degrees C prior to their use. All drugs and investigational agents were tested over a range starting from a high concentration at or near the clinical Cmax and decreasing in half-log increments. If the clinical Cmax for an agent had not been determined, the highest concentration tested was 10 microM, except for SN-38, which was tested at a high concentration of 1 microM.
Cell Culture. All cells were maintained in an incubator at 37 degrees C and 5% CO2 with 95% humidity. The PDC lines were cultured according to standard operating procedures established by the NCI PDMR (https://pdmr.cancer.gov). Table 3 of the manuscript, lists the cell lines along with the number of the three cell types plated to form the mct-spheroids and media for tumor cell growth. After thawing, all PDC lines, except 997537-175-T-J1-PDC and 415267-285-R-J2-PDC, were cultured in Matrigel-coated flasks prepared with a working solution of 1X Ham's F-12 nutrient mix, without supplementation (Thermo Fisher Scientific, cat. 11765054), 100 U/mL penicillin-streptomycin (Thermo Fisher Scientific, cat. 15140122), and 2.5% Matrigel (Corning Inc., Corning, NY, cat. 354248) for the first three passages. The two PDC lines 997537-175-T-J1-PDC and 415267-285-R-J2-PDC were cultured on uncoated flasks. The 857933-349-R-J2-PDC line was cultured in 6C/Colon 1B media containing advanced DMEM/F-12 (Thermo Fisher Scientific, cat. 12634028), 10 mM HEPES (Thermo Fisher Scientific, cat. 15630080), 1X GlutaMAX supplement (Thermo Fisher Scientific, cat. 35050061), 0.1 mg/mL primocin (InvivoGen, San Diego, CA, cat. ant-pm-2), 10% defined fetal bovine serum, heat inactivated (HyClone Laboratories Inc., Logan, UT, cat. SH30070.03HI), 50% L-WRN conditioned media (ATCC, cat. CRL-3276), 1.25 mM N-Acetyl-L-cysteine (Sigma-Aldrich, cat. A9165), 10 mM nicotinamide (Sigma-Aldrich, cat. N0636), 1X B-27 supplement (Thermo Fisher Scientific, cat. 17504044), 1X N-2 supplement (Thermo Fisher Scientific, cat. […]
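Also: luminescence signal used as surrogate measure of viable cells; spheroids exposed to compounds for seven days before readout.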
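For viability, T/C in this document: 100% = DMSO vehicle control viability as luminescence relative to vehicle.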

CC[C@@]1(O)C(=O)OCc2c1cc1n(c2=O)Cc2cc3c(CN(C)C)c(O)ccc3nc2-1 + Cc1cccc(N(C)C(=O)C2C(O)CCN2c2nc(C)cc(C(F)(F)F)c2C#N)c1
12.7 nM: IC50 (curve of first compound, second compound 3.16 µM)
12.8 nM: IC50 (curve of first compound, second compound 10 µM)
10.5 nM: IC50 (curve of first compound, second compound 0.0316 µM)
15.5 nM: IC50 (curve of first compound, second compound 0.1 µM) | IC50 (curve of first compound, second compound 0.316 µM)
inactive: viability, T/C (second compound 0.0316 µM, first compound 0.000316 µM) 102% | viability, T/C (second compound 0.0316 µM, first compound 0.001 µM) 98.8% | viability, T/C (second compound 0.0316 µM, first compound 0.00316 µM) 94.6% | viability, T/C (second compound 0.0316 µM, first compound 0.01 µM) 51.7% | viability, T/C (second compound 0.0316 µM, first compound 0.0316 µM) 18.5% | viability, T/C (second compound 0.0316 µM, first compound 0.1 µM) 18.2% | viability, T/C (second compound 0.1 µM, first compound 0.000316 µM) 100% | viability, T/C (second compound 0.1 µM, first compound 0.001 µM) 106% | viability, T/C (second compound 0.1 µM, first compound 0.00316 µM) 96.3% | viability, T/C (second compound 0.1 µM, first compound 0.01 µM) 69.9% | viability, T/C (second compound 0.1 µM, first compound 0.0316 µM) 15.8% | viability, T/C (second compound 0.1 µM, first compound 0.1 µM) 18.5% | viability, T/C (second compound 0.316 µM, first compound 0.000316 µM) 102% | viability, T/C (second compound 0.316 µM, first compound 0.001 µM) 107% | viability, T/C (second compound 0.316 µM, first compound 0.00316 µM) 88.7% | viability, T/C (second compound 0.316 µM, first compound 0.01 µM) 70.3% | viability, T/C (second compound 0.316 µM, first compound 0.0316 µM) 14.9% | viability, T/C (second compound 0.316 µM, first compound 0.1 µM) 18.3% | viability, T/C (second compound 1 µM, first compound 0.000316 µM) 99.1% | viability, T/C (second compound 1 µM, first compound 0.001 µM) 105% | viability, T/C (second compound 1 µM, first compound 0.00316 µM) 103% | viability, T/C (second compound 1 µM, first compound 0.01 µM) 68.8% | viability, T/C (second compound 1 µM, first compound 0.0316 µM) 17.9% | viability, T/C (second compound 1 µM, first compound 0.1 µM) 16.9% | viability, T/C (second compound 3.16 µM, first compound 0.000316 µM) 106% | viability, T/C (second compound 3.16 µM, first compound 0.001 µM) 90.4% | viability, T/C (second compound 3.16 µM, first compound 0.00316 µM) 94.2% | viability, T/C (second compound 3.16 µM, first compound 0.01 µM) 58% | viability, T/C (second compound 3.16 µM, first compound 0.0316 µM) 19.3% | viability, T/C (second compound 3.16 µM, first compound 0.1 µM) 18.9% | viability, T/C (second compound 10 µM, first compound 0.000316 µM) 101% | viability, T/C (second compound 10 µM, first compound 0.001 µM) 96.2% | viability, T/C (second compound 10 µM, first compound 0.00316 µM) 94.3% | viability, T/C (second compound 10 µM, first compound 0.01 µM) 57.9% | viability, T/C (second compound 10 µM, first compound 0.0316 µM) 20.4% | viability, T/C (second compound 10 µM, first compound 0.1 µM) 19.6%
15.3 nM: IC50 (curve of first compound, second compound 1 µM)

CC1COCCN1c1cc(C2(S(C)(=N)=O)CC2)nc(-c2ccnc3[nH]ccc23)n1 (configuration not stated)
inactive: viability, T/C (compound 0.0316 µM) 106% and 91.7% and 104% | viability, T/C (compound 0.1 µM) 99.9% and 108% and 91.8% | viability, T/C (compound 0.316 µM) 94.5% and 93.5% and 97.2% | viability, T/C (compound 1 µM) 70.8% and 83.8% and 71.7% | viability, T/C (compound 3.16 µM) 41.6% and 77.8% and 42.5% | viability, T/C (compound 10 µM) 16.7% and 45.8% and 16.9%
2270 nM and 8700 nM and 2350 nM: IC50 (curve of compound)

CC[C@@]1(O)C(=O)OCc2c1cc1n(c2=O)Cc2cc3c(CN(C)C)c(O)ccc3nc2-1
14.1 nM and 17.2 nM and 13.9 nM: IC50 (curve of compound)
16% and 6.06% and 17.5%: viability, T/C (compound 0.1 µM)
18% and 9.22% and 16.4%: viability, T/C (compound 0.0316 µM)
inactive: viability, T/C (compound 0.000316 µM) 98.5% and 98.7% and 92.7% | viability, T/C (compound 0.001 µM) 96.4% and 98.7% and 99.2% | viability, T/C (compound 0.00316 µM) 99.3% and 95.3% and 99.2% | viability, T/C (compound 0.01 µM) 64% and 86.4% and 63.1%

COc1ccc([C@@H](O)c2cc(-c3ncnc4cc(N5CCOCC5)ccc34)c(F)cc2Cl)nn1
3610 nM and 9970 nM and 3520 nM: IC50 (curve of compound)
inactive: viability, T/C (compound 0.0316 µM) 94.3% and 105% and 106% | viability, T/C (compound 0.1 µM) 96% and 95.6% and 99.2% | viability, T/C (compound 0.316 µM) 93.8% and 92.8% and 87.8% | viability, T/C (compound 1 µM) 87.6% and 96.2% and 92.5% | viability, T/C (compound 3.16 µM) 55.4% and 93.5% and 53.1%
